Experimental data taken from patent US20110190307A1, “Assay” (priority 2008, published 2011).
Entries after “also recorded” stand apart in the source; their conditions may differ.

What was measured:
[1] = tested on: HB9:GFP+ motor neurons in the lesioned adult spinal cord; test: adult validation paradigm: motor neuron regeneration after spinal cord lesion; format: in vivo, zebrafish; conditions: 2 weeks post-lesion; for number of newly generated motor neurons in HB9:GFP transgenic animals: within 1.5 mm surrounding the lesion site
Protocol: As described previously (Becker et al., 1997), fish were anesthetized by immersion in 0.033% aminobenzoic acid ethylmethylester (MS222; Sigma, St. Louis, Mo.) in PBS for 5 min. A longitudinal incision was made at the side of the fish to expose the vertebral column. The spinal cord was completely transected under visual control 4 mm caudal to the brainstem-spinal cord junction.
Stereological counts were performed in confocal image stacks of three randomly selected vibratome sections from the region up to 750 μm rostral to the lesion site and three sections from the region up to 750 μm caudal to the lesion site. Cell numbers were then calculated for the entire 1.5 mm surrounding the lesion site.
Different small molecule libraries may be used for screening. It is possible to screen the Spectrum Collection of FDA approved drugs and natural products and other bioactive components (2000 compounds), the Diversity Set of the US National Cancer Institute (1990 compounds), the Tocriscreen library (1120 compounds) and the Prestwick Chemical Library (1120 compounds). Due to some overlap between libraries, we will test approximately 5600 individual compounds. All of these libraries are commercially available. Primary screen: Compounds are applied to HB9:GFP embryos in 24 well plates at a concentration of 10-25 μM in accordance with other studies (Zon and Peterson, 2005) at 6 hpf (mid-gastrula) and trajectories of motor axons analysed at 24 hpf. Analysing 2-3 embryos per compound is sufficient, because the pattern of motor axon outgrowth is highly stereotypic, making this a robust and quick screening tool. No anaesthesia or other manipulations are necessary to observe primary motor axons. Missing, stunted, excessively branched or supernumerary motor axons (FIG. 8), which are easily detectable in a fluorescence-equipped stereo-microscope, are classified as hits. Apparently toxic substances will be re-evaluated at lower concentrations. Specificity of the effect will be established in dose-response experiments for each hit. Secondary screen: To exclude non-specific effects on motor axons due to gross alterations of the embryos occurring during early drug application, and to more directly analyse incipient differentiation of motor neurons, we use the islet-1:GFP fish. Hit compounds from the primary screen are applied at 24 hpf, when early embryogenesis is complete, but before islet-1:GFP+ motor neurons have been born. The read-out of this screen is whether the rostro-caudal band of late born secondary motor neurons in the ventral spinal cord is complete. […] To do this, 20 embryos per treatment will be dechorionated, anesthetised (tricaine 1:10000) and analysed under a stereomicroscope. […]

[2] = tested on: primary mammalian motor neurons; test: neuroprotective effect on primary mammalian motor neurons in culture under stress; format: cell-based; conditions: 0.5 and 5 μM applied 1 hr before stressors (H2O2 and staurosporin), 24 hours, MAP-2 positive cells counted
Protocol: Neuroprotection is measured as a % of cells counted in each experimental condition to the number of control, untreated cells run at the same time on the same plate. NPA was applied 1 hr before stressors (H2O2 and staurosporin), at 2 concentrations: 0.5 and 5 μM. Stressors were applied for 24 hours, then plates were fixed and stained for MAP-2 and then positive cells counted.

[3] = tested on: islet-1:GFP+ motor neurons in the ventral spinal cord; test: secondary screen paradigm: motor neuron differentiation in islet-1:GFP transgenic embryos; format: in vivo, zebrafish
Protocol: (§1) We use two transgenic lines, in which expression of green fluorescent protein (GFP) is controlled by the motor neuron specific promoters HB9 or islet-1 in the spinal cord. In the HB9:GFP line (Flanagan-Steet et al., 2005), primary motor neurons and their ventral axons are labelled at 24 hours post-fertilisation (hpf). Aberrations in the highly stereotypic pattern of primary motor axons are easily detectable in a stereo-microscope (FIG. 8). […] Thus, acceleration or delay of motor neuron differentiation can readily be assessed under a stereo-microscope.
(§2) Different small molecule libraries may be used for screening. […] Primary screen: Compounds are applied to HB9:GFP embryos in 24 well plates at a concentration of 10-25 μM in accordance with other studies (Zon and Peterson, 2005) at 6 hpf (mid-gastrula) and trajectories of motor axons analysed at 24 hpf. […] Missing, stunted, excessively branched or supernumerary motor axons (FIG. 8), which are easily detectable in a fluorescence-equipped stereo-microscope, are classified as hits. Apparently toxic substances will be re-evaluated at lower concentrations. […] The read-out of this screen is whether the rostro-caudal band of late born secondary motor neurons in the ventral spinal cord is complete. […] To do this, 20 embryos per treatment will be dechorionated, anesthetised (tricaine 1:10000) and analysed under a stereomicroscope. […]

[4] = tested on: motor axons in HB9:GFP embryos; test: primary screen paradigm: motor axons in HB9:GFP transgenic embryos; format: in vivo, zebrafish; conditions: 24 hpf HB9:GFP embryos, compound applied at 6 hpf
Protocol: as §1, §2

SMILES	number of large motor neurons ([1]; intraperitoneal injection, p=0.0008)	number of newly generated motor neurons in HB9:GFP transgenic animals ([1]; intraperitoneal injection)	neuroprotection: number of neurons surviving stress conditions (% of untreated control cells) [2]	embryos with a complete band of differentiated motor neurons ([3]; 72 hpf, controls 82%, p<0.00001)	effect on motor neuron differentiation (in words) ([3]; islet-1:GFP embryos, compound applied at 24 hpf, read at 48 hpf and 72 hpf)	reduction in the number of newly generated motor neurons ([1]; compared to tomatidine-injected animals)	absence of motor axons [4]
C[C@H]1CC[C@]2(NC1)O[C@H]1C[C@H]3[C@@H]4CC[C@H]5C[C@@H](O)CC[C@]5(C)[C@H]4CC[C@]3(C)[C@H]1[C@@H]2C [tomatidine]	20±4.2	747±42.2 cells	–	–	–	–	–
CCCN1CCc2cccc3c2[C@H]1Cc1ccc(O)c(O)c1-3.Cl [NPA, R(−)-Propylnorapomorphine]	–	–	significantly increases the number of mammalian neurons surviving stress conditions	–	–	–	–
CC1=C2C[C@H]3[C@@H](CC=C4C[C@@H](O)CC[C@@]43C)[C@@H]2CC[C@]12O[C@@H]1C[C@H](C)CN[C@H]1[C@H]2C [cyclopamine]	–	377±45.7 cells	–	11%	blocks their differentiation; also recorded: retarded motor neuron differentiation	50%	complete
